{
  "source": "ChEMBL document CHEMBL1201862",
  "about": "“PubChem BioAssay data set” (2004)",
  "key": {"[1]": {"assay": "blockers of bursicon-stimulated LGR2 cAMP reporter – cell-based, HEK293, CRE-luciferase reporter, cherry pick, set 2, dose response (AID 743343);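 note: transfected cells were stimulated with diluted bursicon conditioned medium after compound addition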", "format": "functional"}, "[2]": {"assay": "toxicity toward HepG2 liver cells – cell-based, plate reader, cherry-pick, antagonist series, cytotoxicity control, dose response (AID 743416)", "format": "functional"}, "[3]": {"assay": "blockade of melanocortin 4 receptor signaling – cell-based, plate reader, cherry pick, counter-screen for LGR2 antagonist project, dose response (AID 743444);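 note: transfected HEK 293 cells stimulated with alpha-MSH peptide; potency of inhibitors of the alpha-MSH evoked signal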", "format": "functional"}, "[4]": {"assay": "viability loss in HEK293 cells – cell-based, plate reader, cherry-picked samples, cytotoxicity control, dose response (AID 743446)", "format": "functional"}, "[5]": {"assay": "A549 cell cytotoxicity, dose response, cytotoxicity control, plate reader, cherry-pick, antagonist series (AID 743412)", "format": "functional, cell-based"}, "[6]": {"target": "T1, Oxysterols receptor LXR-beta (Homo sapiens, UniProt P55055)", "T1 sequence (P55055 whole entry)": "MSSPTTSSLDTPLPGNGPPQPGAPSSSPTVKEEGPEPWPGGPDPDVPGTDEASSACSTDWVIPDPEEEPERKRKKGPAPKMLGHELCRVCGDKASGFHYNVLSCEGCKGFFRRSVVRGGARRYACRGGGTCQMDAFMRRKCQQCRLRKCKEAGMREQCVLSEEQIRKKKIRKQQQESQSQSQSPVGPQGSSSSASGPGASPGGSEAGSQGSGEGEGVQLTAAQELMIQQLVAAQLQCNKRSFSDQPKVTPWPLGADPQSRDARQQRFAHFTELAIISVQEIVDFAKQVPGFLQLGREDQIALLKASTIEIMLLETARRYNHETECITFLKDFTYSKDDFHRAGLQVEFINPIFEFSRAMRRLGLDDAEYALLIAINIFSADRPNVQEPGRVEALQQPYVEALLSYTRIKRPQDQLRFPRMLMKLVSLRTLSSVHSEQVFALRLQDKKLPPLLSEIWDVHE", "format": "functional, cell-based"}, "fMet-Leu-Phe receptor": {"target": "fMet-Leu-Phe receptor (Homo sapiens, UniProt P21462)", "sequence (P21462 whole entry)": "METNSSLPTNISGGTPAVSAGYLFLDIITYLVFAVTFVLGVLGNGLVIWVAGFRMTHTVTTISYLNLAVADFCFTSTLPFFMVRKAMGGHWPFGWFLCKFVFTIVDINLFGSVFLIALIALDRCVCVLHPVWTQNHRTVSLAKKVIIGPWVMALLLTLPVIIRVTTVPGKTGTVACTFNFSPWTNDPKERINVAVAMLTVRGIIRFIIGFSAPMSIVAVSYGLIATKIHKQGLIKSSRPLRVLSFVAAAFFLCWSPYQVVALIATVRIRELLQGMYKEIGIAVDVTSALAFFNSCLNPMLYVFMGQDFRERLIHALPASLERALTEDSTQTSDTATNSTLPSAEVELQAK", "assay": "formyl peptide receptor binders – dose response (AID 519)", "format": "functional"}, "[7]": {"assay": "viability loss of HPDE-C7K cells – cell-based, fluorescence, HTS, primary screen (AID 431)", "format": "functional", "settings": "Homo sapiens"}, "Streptococcus": {"system": "Streptococcus", "assay": "GAS UMAA2166 growth inhibition – luminescence, BacTiterGlo, counter-screen for streptokinase expression inhibitor project, dose response (AID 1915);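 note: potency for reduction of bacterial viability or growth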", "format": "functional, organism-based"}, "Aminopeptidase N": {"target": "T2, Aminopeptidase N (Plasmodium falciparum FcB1/Columbia, UniProt O96935)", "T2 sequence (O96935 whole entry)": "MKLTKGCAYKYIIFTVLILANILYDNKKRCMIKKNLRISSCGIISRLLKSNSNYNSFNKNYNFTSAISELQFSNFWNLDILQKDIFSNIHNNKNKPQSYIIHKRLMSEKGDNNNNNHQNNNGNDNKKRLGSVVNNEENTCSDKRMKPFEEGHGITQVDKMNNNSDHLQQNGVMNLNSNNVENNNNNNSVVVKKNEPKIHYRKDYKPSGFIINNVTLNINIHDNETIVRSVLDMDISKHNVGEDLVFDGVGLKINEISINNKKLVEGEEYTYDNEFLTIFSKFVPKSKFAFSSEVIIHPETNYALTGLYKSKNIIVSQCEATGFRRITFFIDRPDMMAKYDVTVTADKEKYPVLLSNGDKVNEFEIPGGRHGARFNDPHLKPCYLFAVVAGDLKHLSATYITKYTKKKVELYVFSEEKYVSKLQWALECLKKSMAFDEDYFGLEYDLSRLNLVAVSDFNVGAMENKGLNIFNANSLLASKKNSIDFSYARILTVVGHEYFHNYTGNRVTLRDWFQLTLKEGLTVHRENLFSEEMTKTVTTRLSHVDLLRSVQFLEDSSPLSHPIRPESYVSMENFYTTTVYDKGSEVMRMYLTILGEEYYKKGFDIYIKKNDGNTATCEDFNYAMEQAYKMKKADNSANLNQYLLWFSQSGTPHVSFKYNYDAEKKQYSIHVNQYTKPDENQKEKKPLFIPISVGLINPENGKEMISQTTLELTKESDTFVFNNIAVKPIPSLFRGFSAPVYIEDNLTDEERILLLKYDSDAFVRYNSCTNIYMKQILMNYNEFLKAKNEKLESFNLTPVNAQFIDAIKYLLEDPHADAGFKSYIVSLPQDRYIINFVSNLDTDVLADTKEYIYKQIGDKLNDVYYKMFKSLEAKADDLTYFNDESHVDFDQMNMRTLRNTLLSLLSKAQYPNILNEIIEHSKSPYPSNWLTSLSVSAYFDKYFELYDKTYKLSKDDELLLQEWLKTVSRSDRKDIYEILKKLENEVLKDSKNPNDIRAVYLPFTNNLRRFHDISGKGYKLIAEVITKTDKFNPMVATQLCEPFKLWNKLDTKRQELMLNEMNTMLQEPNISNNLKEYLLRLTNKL", "assay": "malaria alanyl aminopeptidase activity blockers – biochemical, fluorogenic H-Leu-NHMec substrate, 1536-well (AID 1445)", "design": "species or system Plasmodium falciparum 3D7, 3D7"}, "[8]": {"assay": "HPDE-C7 pancreatic duct cell viability loss – fluorescence, HTS (AID 430)", "format": "functional, cell-based", "settings": "Homo sapiens"}, "Streptokinase A": {"target": "T3, Streptokinase A (Streptococcus pyogenes serotype M1, UniProt P10520)", "T3 sequence (P10520 whole entry)": "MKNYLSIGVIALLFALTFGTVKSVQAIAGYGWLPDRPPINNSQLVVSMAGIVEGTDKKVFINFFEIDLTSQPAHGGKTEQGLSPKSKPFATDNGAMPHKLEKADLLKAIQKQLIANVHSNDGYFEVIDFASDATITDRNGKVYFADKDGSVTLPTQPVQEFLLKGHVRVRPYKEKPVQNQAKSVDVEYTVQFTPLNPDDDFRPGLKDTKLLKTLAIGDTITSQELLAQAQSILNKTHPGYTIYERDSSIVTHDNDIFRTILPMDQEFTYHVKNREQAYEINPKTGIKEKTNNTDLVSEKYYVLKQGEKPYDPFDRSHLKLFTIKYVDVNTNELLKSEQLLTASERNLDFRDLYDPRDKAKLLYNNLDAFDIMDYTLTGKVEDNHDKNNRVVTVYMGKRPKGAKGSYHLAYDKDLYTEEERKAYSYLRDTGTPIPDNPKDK", "assay": "viability-normalized secreted streptokinase activity reduction – plasminogen activation absorbance, OD405, dose response (AID 1914);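 note: secreted streptokinase activity via plasminogen activation per viability signal from cell pellet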", "format": "functional, Streptococcus pyogenes M1 GAS"}, "[9]": {"system": "Streptococcus sp. 'group A'", "assay": "Streptococcus pyogenes SK(-)GAS viability under kanamycin – luminescence, BacTiterGlo, confirmation, counter-screen for streptokinase expression inhibitor project, dose response (AID 1900)", "format": "functional, organism-based"}, "[10]": {"assay": "cytotoxicity in MITF-independent A375 cells – cell-based, CellTiter-Glo luminescence, dry powder, set 4, counter-screen for MITF inhibitor project, dose response (AID 624364);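 note: A375 melanoma cells are MITF independent so this is a counter screen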", "format": "functional", "settings": "A-375"}, "[11]": {"assay": "viability loss in MITF-independent A375 cells – cell-based, CellTiter-Glo luminescence, dry powder, set 2, counter-screen for MITF inhibitor project, dose response (AID 624489);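 note: actives are compounds lowering A375 viability meaning general cytotoxicity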", "format": "functional", "settings": "A-375"}},
  "note": "The source made the active and inactive calls.",
  "data": [
    {"smiles": "COc1ccc(C(=O)Nc2nnc(-c3cccs3)s2)cc1", "values": [
      {"measurement": "AC50", "setting": "[1]", "value": "5.12 µM (active)"},
      {"measurement": "AC50", "setting": "[2]", "value": "45.2 µM (active)"},
      {"measurement": "AC50", "setting": "[3]", "value": "3.17 µM (active)"},
      {"measurement": "AC50", "setting": "[4]", "value": "> 52 µM (inactive)"},
      {"measurement": "EC50", "setting": "cells", "value": "> 67.5 µM (inactive)"},
      {"measurement": "AC50", "setting": "[5]", "value": "44.5 µM (active)"},
      {"measurement": "EC50", "setting": "[6]", "value": "> 67.5 µM (inactive)"}
    ]},
    {"smiles": "CCCCCNC(=O)c1ccc2c(=O)[nH]c3c(C(=O)NCC4CCCO4)sc(=S)n3c2c1", "note": "(stereo not drawn)", "values": [
      {"measurement": "Ki", "setting": "fMet-Leu-Phe receptor", "value": "40.7 µM (inactive)"},
      {"measurement": "EC50", "setting": "[7]", "value": "> 20 µM (not active)"},
      {"measurement": "EC50", "setting": "Streptococcus", "value": "> 150 µM (not active)"},
      {"measurement": "IC50", "setting": "Aminopeptidase N", "value": "37 µM (active)"},
      {"measurement": "EC50", "setting": "[8]", "value": "17.6 µM (active)"},
      {"measurement": "EC50", "setting": "Streptokinase A", "value": "21.1 µM (inconclusive)"},
      {"measurement": "EC50", "setting": "[9]", "value": "0.944 µM (active)"}
    ]},
    {"smiles": "O=C(NC1=C(c2ccccc2)C(=O)c2ccccc2C1=O)c1ccco1", "values": [
      {"measurement": "AC50", "setting": "[10]", "value": "21.3 µM (active)"},
      {"measurement": "AC50", "setting": "[11]", "value": "14.2 µM (active)"}
    ]},
    {"smiles": "O=C(NC1=C(c2ccccc2)C(=O)c2ccccc2C1=O)c1ccc(Br)cc1", "values": [
      {"measurement": "AC50", "setting": "[10]", "value": "45.8 µM (active)"},
      {"measurement": "AC50", "setting": "[11]", "value": "22.9 µM (active)"}
    ]}
  ]
}
